pIC50: −log10 of the molar value.
What was measured:
Format in all cases: cell-based, Endothelial cell
E-selectin = biological target: T1, E-selectin (Homo sapiens, UniProt P16581); assay: Inhibitory activity against E-selectin expressed in endothelial cells
T1 sequence (P16581 whole entry): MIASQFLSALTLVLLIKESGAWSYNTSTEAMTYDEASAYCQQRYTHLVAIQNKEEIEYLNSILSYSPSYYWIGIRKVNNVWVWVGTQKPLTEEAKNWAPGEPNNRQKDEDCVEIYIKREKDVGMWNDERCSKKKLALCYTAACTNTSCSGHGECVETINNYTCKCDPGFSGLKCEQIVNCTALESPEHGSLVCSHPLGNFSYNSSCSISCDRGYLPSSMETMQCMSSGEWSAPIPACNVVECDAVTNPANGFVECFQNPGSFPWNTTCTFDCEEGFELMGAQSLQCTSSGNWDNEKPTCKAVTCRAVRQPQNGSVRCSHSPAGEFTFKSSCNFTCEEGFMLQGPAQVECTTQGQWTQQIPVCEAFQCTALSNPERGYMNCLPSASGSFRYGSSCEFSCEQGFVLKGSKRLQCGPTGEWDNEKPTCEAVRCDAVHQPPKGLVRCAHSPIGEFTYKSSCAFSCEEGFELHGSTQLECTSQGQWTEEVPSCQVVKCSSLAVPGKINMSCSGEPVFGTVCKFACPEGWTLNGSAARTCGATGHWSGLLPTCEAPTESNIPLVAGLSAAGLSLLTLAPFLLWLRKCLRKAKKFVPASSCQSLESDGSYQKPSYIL

L-selectin = biological target: T2, L-selectin (Homo sapiens, UniProt P14151); assay: Inhibitory activity against Selectin L expressed in endothelial cells
T2 sequence (P14151 whole entry): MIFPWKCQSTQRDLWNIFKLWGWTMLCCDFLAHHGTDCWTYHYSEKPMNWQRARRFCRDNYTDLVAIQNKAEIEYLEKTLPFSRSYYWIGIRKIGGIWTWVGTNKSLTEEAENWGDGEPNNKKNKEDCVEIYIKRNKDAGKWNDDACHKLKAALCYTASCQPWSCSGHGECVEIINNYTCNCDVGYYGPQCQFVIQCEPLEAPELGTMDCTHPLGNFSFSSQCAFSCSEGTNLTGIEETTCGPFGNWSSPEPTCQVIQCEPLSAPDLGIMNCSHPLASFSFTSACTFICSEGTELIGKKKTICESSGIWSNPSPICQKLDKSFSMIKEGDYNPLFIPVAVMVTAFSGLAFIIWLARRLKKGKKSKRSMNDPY

P-selectin = biological target: T3, P-selectin (Homo sapiens, UniProt P16109); assay: Inhibitory activity against Selectin P expressed in endothelial cells
T3 sequence (P16109 whole entry): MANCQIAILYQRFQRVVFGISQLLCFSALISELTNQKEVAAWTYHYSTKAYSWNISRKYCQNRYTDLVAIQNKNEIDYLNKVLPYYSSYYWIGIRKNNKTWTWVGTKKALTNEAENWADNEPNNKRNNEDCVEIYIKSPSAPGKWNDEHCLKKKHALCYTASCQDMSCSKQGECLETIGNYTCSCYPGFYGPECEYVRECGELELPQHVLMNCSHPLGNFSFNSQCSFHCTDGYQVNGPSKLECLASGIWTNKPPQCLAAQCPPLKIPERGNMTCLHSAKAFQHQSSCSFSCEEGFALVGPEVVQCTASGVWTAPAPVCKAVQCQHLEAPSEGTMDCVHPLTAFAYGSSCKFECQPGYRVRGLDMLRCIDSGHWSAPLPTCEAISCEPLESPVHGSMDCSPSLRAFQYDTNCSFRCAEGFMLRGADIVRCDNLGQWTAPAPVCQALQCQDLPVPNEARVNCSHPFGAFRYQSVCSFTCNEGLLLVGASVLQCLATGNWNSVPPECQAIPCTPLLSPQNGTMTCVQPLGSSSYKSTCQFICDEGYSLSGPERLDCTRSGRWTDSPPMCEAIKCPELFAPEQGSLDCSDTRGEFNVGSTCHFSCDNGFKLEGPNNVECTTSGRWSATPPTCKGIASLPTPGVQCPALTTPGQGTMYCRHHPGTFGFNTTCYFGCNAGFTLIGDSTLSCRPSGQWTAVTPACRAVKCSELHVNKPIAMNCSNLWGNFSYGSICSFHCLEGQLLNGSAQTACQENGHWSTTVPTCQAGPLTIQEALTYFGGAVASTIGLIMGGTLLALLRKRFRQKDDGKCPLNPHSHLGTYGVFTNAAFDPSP

SMILES | pIC50 (E-selectin) | pIC50 (L-selectin) | pIC50 (P-selectin)
CCCCCCCCCCCCCCC(CCCCCCCCCCCCCC)CO[C@@H]1O[C@H](CO)[C@@H](O[C@@H]2O[C@H](CO)[C@H](O)[C@H](OS(=O)(=O)O)[C@H]2O)[C@H](O[C@@H]2O[C@@H](C)[C@@H](O)[C@@H](O)[C@@H]2O)[C@H]1O | 3.55 | 4.52 | 4.00
CC(=O)N[C@H]1[C@H]([C@H](O)[C@H](O)CO)O[C@@](O[C@@H]2[C@H](O)[C@H](O[C@H]3[C@H](O[C@@H]4O[C@@H](C)[C@@H](O)[C@H](O)[C@@H]4O)[C@H](NC(C)=O)C(O)O[C@H]3CO)O[C@@H](CO)[C@@H]2O)(C(=O)O)C[C@H]1O (some centres undefined) | 3.22 | < 3.00 | < 3.00
C[C@@H]1O[C@@H](O[C@@H]2[C@H](O)[C@H](O)O[C@@H](CO)[C@H]2O[C@@H]2O[C@@H](CO)[C@H](O)[C@H](OS(=O)(=O)O)[C@@H]2O)[C@@H](O)[C@@H](O)[C@@H]1O | < 3.00 | < 3.00 | 3.52
